Here are results for 5 compounds from patent US20080275058A1, “N-Substituted-1H-Quinoline-2,4-Diones, Preparation Method Thereof, And Pharmaceutical Composition Containing The Same” (KOREA RESEARCH INSTITUTE OF CHEMICAL TECHNOLOGY, priority 2005, published 2008).

One data set concerns the target T1, hD3 (Homo sapiens, UniProt P35462).
T1 construct: purchased BioSignal Packard Inc., Montreal, Canada
In words: Radioligand binding, dopamine D3 ([3H]spiperone). The settings on record: Table 4; [3H]spiperone 1 nM; read-out: Binding affinity, IC50 (nM) D3. As for the experimental part:
(§1) 2-2: Binding assays of Dopamine Receptor Family
(§2) The radioligands used were [^3H] spiperone (for hD2L and hD3 receptors, 1 nM) and [^3H] YM-09151-2 (for hD4.2 receptor, 0.06 nM). Radioligand bindings were performed by the protocols provided by the supplier of receptor membranes (BioSignal Packard Inc., Montreal, Canada). Briefly, the buffer used in D2 or D3 receptor binding assay was 50 mM Tris-HCl (pH 7.4), 10 mM MgCl2, 1 mM EDTA, or 50 mM Tris-HCl (pH 7.4), 5 mM MgCl2, 5 mM EDTA, 5 mM KCl, 1.5 mM CaCl2, 120 mM NaCl, respectively. In [^3H] YM-09151-2 receptor binding assays, the buffer containing 50 mM Tris-HCl (pH 7.4), 5 mM MgCl2, 5 mM EDTA, 5 mM KCl and 1.5 mM CaCl2 was used. […] Competition binding studies were carried out with 7-8 concentrations of the test compound run in duplicate tubes, and isotherms from three assays were calculated by computerized nonlinear regression analysis (GraphPad Prism Program, San Diego, […]) to yield median inhibitory concentration (IC50) values.

The target in data set [1] is T2, Human serotonin 5-HT6 receptor (Homo sapiens, UniProt P50406).
T2 construct: made in house; host or cells: insect Sf21 cells (baculovirus vector BacPAK8)
T2 sequence (P50406 whole entry): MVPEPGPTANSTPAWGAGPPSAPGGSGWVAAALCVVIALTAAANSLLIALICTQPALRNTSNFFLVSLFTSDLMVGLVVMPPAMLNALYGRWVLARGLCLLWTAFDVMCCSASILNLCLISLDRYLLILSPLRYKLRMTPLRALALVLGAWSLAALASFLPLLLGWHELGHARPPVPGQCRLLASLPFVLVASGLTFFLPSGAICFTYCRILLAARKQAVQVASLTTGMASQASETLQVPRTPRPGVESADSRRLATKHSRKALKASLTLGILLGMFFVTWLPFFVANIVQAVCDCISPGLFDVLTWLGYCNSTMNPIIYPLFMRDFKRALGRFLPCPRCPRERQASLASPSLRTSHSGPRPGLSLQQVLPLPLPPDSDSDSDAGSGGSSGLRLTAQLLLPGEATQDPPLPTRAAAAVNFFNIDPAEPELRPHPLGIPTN
Put plainly: [3H]LSD binding assay on cloned 5-HT6 receptor membranes.

A further data set deals with T3, 5-HT1a (Homo sapiens, UniProt P08908).
T3 construct: purchased Euroscreen/BioSignal Packard Inc
T3 sequence (P08908 1-422): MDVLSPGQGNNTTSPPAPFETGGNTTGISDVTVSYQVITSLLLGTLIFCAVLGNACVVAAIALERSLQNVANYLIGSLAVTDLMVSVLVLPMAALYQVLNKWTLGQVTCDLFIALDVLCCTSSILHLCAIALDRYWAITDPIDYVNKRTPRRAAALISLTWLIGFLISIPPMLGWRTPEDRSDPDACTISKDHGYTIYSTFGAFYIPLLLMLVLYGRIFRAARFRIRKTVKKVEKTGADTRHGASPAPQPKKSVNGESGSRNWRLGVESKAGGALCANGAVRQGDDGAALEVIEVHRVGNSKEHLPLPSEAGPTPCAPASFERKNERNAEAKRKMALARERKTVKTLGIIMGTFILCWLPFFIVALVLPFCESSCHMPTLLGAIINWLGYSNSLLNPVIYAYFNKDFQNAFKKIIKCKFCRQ
In words: Radioligand binding, 5-HT1a ([3H]8-OH-DPAT). The settings on record: Table 4; [3H]8-OH-DPAT 0.5 nM; read-out: Binding affinity, IC50 (nM) 5-HT1a. The method, then: Radioligand bindings were performed according to the test method provided by the supplier of receptor membrane (Euroscreen/BioSignal Packard Inc.). The detailed assay conditions and the results were shown in the following Table 3 and Table 4, respectively.

Another data set concerns the target T4, hD2L (Homo sapiens, UniProt P14416).
T4 construct: purchased BioSignal Packard Inc., Montreal, Canada
Put plainly: Radioligand binding, dopamine D2 ([3H]spiperone). The settings on record: Table 4; [3H]spiperone 1 nM; read-out: Binding affinity, IC50 (nM) D2. As for the experimental part:
as §1, §2

A further data set has as its target D1 (Homo sapiens, UniProt P21728). In words: Radioligand binding, dopamine D1. The settings on record: Table 4; read-out: Binding affinity, IC50 (nM) D1.
A further data set concerns the target T5, 5-HT2a (Homo sapiens, UniProt P28223).
T5 construct: purchased Euroscreen/BioSignal Packard Inc
In words: Radioligand binding, 5-HT2a ([3H]Ketanserin). The settings on record: Table 4; [3H]Ketanserin 1 nM; read-out: Binding affinity, IC50 (nM) 5-HT2a.

Another data set concerns the target T6, 5-HT7 (Homo sapiens, UniProt P34969).
T6 construct: purchased Euroscreen/BioSignal Packard Inc
Put plainly: Radioligand binding, 5-HT7 ([3H]LSD). The settings on record: Table 4; [3H]LSD 3 nM; read-out: Binding affinity, IC50 (nM) 5-HT7.

The target in another data set is T7, 5-HT2c (Homo sapiens, UniProt P28335).
T7 construct: purchased Euroscreen/BioSignal Packard Inc
T7 sequence (P28335 33-458): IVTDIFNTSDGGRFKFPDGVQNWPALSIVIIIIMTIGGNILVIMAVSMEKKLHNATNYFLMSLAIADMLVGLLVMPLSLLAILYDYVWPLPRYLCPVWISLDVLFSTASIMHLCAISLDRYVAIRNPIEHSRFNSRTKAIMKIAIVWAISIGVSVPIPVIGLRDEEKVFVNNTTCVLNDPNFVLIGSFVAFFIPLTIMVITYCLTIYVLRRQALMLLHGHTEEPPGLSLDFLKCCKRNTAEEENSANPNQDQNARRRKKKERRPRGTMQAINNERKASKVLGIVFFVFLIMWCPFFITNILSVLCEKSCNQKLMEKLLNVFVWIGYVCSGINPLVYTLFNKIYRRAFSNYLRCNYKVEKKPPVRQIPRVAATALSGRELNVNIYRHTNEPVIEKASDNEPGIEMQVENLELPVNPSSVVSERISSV
In words: Radioligand binding, 5-HT2c ([3H]Mesulergine). The settings on record: Table 4; [3H]Mesulergine 1 nM; read-out: Binding affinity, IC50 (nM) 5-HT2c.

In the next data set the target is T8, hD4.2 receptor (Homo sapiens, UniProt P21917, DEL265-296).
T8 construct: purchased BioSignal Packard Inc., Montreal, Canada
T8 sequence (P21917 with tags, fused parts or gaps DEL265-296): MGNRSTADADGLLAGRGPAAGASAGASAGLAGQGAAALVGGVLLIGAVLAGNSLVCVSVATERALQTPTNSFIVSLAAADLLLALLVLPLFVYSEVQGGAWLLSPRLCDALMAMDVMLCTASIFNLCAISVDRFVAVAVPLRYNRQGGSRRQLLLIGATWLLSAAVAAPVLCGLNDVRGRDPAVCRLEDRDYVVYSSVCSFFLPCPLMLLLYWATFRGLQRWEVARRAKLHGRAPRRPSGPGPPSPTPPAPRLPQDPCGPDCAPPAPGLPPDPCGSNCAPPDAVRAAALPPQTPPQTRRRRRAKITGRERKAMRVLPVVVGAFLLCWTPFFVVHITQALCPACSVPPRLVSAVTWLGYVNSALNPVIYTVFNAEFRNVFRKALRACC
Put plainly: Radioligand binding, dopamine D4 ([3H]YM-09151-2). The settings on record: Table 4; [3H]YM-09151-2 0.06 nM; read-out: Binding affinity, IC50 (nM) D4. As for the experimental part: as §1, §2

The mark [2] stands for this setting: Table 2, 1.87 nM [3H]LSD, 37 C, 60 min, read-out: IC50 (nM), binding affinity to the 5-HT6 receptor.
[3] abbreviates: Table 4, read-out: Binding affinity, IC50 (nM) 5-HT6.

SMILES strings stand for the structures. Read-outs that look alike come from different tables or passages of the source.

T5 sequence (P28223 whole entry): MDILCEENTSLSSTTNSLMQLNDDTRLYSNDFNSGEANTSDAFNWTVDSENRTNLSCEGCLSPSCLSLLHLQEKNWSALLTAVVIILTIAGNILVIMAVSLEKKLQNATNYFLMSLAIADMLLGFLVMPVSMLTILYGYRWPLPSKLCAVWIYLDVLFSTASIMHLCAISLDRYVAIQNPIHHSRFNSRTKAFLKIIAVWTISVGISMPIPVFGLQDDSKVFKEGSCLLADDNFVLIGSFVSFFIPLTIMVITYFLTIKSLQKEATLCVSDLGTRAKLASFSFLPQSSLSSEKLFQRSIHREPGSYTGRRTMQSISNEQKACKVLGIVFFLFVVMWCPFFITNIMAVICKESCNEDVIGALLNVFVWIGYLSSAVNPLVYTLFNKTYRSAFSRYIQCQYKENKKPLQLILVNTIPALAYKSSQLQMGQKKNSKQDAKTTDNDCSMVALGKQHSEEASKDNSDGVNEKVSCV
T4 sequence (P14416 whole entry): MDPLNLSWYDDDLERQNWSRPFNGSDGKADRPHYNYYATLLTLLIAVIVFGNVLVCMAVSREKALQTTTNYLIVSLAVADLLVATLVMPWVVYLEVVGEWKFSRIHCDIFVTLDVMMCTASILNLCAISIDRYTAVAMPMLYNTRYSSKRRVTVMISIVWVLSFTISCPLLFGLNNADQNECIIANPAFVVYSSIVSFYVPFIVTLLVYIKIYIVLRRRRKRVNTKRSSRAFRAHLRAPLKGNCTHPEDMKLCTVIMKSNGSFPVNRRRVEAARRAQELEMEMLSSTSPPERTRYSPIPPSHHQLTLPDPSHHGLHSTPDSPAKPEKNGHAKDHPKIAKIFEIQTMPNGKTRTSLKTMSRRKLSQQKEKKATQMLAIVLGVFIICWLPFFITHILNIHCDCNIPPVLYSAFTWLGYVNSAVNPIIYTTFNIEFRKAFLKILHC
T6 sequence (P34969 whole entry): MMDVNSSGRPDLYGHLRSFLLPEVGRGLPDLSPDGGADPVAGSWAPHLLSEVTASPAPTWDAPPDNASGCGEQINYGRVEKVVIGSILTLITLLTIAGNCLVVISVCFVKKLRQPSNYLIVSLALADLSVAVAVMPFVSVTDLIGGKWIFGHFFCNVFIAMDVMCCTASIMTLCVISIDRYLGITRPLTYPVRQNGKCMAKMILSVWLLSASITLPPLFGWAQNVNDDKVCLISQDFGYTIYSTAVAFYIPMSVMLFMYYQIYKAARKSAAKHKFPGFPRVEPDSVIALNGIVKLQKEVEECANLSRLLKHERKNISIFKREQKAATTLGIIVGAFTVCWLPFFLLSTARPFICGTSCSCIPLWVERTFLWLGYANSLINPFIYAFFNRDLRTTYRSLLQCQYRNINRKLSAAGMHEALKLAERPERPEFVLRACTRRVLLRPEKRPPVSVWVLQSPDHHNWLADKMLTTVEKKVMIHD
T1 sequence (P35462 whole entry): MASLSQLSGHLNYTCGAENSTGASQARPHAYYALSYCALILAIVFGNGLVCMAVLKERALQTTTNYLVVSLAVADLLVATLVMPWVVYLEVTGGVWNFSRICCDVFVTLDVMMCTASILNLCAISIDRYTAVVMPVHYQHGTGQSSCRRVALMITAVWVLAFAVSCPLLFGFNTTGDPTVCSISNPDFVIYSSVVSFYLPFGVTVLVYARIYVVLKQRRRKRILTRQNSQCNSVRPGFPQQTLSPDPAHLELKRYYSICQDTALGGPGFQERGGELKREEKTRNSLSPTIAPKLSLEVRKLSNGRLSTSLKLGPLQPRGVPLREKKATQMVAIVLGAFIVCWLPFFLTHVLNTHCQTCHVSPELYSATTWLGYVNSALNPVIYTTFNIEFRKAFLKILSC
D1, sequence (P21728 whole entry): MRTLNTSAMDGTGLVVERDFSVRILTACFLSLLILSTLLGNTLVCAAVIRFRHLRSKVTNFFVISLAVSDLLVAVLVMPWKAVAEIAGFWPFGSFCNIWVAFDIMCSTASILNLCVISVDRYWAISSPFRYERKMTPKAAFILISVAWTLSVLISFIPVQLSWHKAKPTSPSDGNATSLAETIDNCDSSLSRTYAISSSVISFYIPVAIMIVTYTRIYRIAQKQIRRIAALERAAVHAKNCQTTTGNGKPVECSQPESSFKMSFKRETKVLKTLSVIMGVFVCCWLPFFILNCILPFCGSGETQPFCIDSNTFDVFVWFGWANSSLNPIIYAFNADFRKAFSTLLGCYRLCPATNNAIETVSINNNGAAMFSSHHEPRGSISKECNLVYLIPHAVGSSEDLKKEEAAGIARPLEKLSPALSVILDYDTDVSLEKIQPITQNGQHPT

Broadly, the IC50 is the concentration at which inhibition is half-maximal. What is called melting point is the temperature of the solid-liquid transition. `CC1(c2ccc(O)cc2)C(=O)c2c(N3CCNCC3)cc(Cl)cc2N(Cc2ccccc2Br)C1=O` (centres unmarked) [Example 36, 1-(2-Bromo-benzyl)-7-chloro-3-(4-hydroxy-phenyl)-3-methyl-5-piperazin-1-yl-1H-quinoline-2,4-dione] gave a melting point of 264 to 265 °C. Also, the IC50 at hD3 was determined as 9610 nM. Moreover, the half-maximal inhibitory concentration (IC50) in data set [1] (setting [2]) came out at 29 nM. Also, in data set [1] (setting [3]), the 50% inhibitory concentration (IC50) came out at 15.1 nM. Moreover, the concentration for half-maximal inhibition (IC50) at 5-HT1a came to 9320 nM. Besides, the IC50 on hD2L is 7990 nM. Besides, the half-maximal inhibitory concentration (IC50) at D1 amounted to 6030 nM. In addition, at 5-HT2a, the IC50 is 6210 nM. Besides, the concentration for half-maximal inhibition (IC50) on 5-HT7 is over 10000 nM. On 5-HT2c, the IC50 was 7160 nM. Further, the half-inhibitory concentration (IC50) on hD4.2 receptor is 9000 nM.
`CC1(c2ccc(O)cc2)C(=O)c2c(N3CCNCC3)cc(Cl)cc2N(Cc2ccc(-c3ccccc3)cc2)C1=O` (centres unmarked) [Example 42, 1-Biphenyl-4-ylmethyl-7-chloro-3-(4-hydroxy-phenyl)-3-methyl-5-piperazin-1-yl-1H-quinoline-2,4-dione] had a melting point of 240 to 241 °C. For the same compound, the IC50 at hD3 was 9210 nM. Also, the 50% inhibitory concentration (IC50) in data set [1] (setting [2]) was determined as 164 nM. In addition, in [1] (setting [3]), the IC50 amounted to 16.1 nM. Moreover, the IC50 on 5-HT1a was determined as 6640 nM. For the same compound, the IC50 at hD2L was 6850 nM. For the same compound, the IC50 on D1 was found to be 6120 nM. Also, on 5-HT2a, the IC50 was found to be 8190 nM. Moreover, the half-maximal inhibitory concentration (IC50) on 5-HT7 is 6730 nM. On 5-HT2c, the half-maximal inhibitory concentration (IC50) was 7600 nM. Also, at hD4.2 receptor, the IC50 amounted to 9410 nM.
For `CCN(CC)c1ccc(C2(C)C(=O)c3c(N4CCN(C)CC4)cc(Cl)cc3N(Cc3ccccc3)C2=O)cc1` (centres unmarked) [Example 5, 1-Benzyl-7-chloro-3-(4-diethylamino-phenyl)-3-methyl-5-(4-methyl-piperazin-1-yl)-1H-quinoline-2,4-dione], the melting point was in the range of 204 to 206 °C. In addition, the IC50 at hD3 amounted to 7080 nM. Besides, the half-inhibitory concentration (IC50) in data set [1] (setting [2]) worked out at 37.8 nM. In addition, the IC50 in data set [1] (setting [3]) was 16.8 nM. For the same compound, the half-inhibitory concentration (IC50) at 5-HT1a was 6450 nM. Moreover, the IC50 at hD2L was 7050 nM. Moreover, on D1, the half-inhibitory concentration (IC50) was determined as 7700 nM. Also, the 50% inhibitory concentration (IC50) on 5-HT2a was found to be 7540 nM. Besides, on 5-HT7, the concentration for half-maximal inhibition (IC50) came out at 7620 nM. On 5-HT2c, the IC50 is 4660 nM. Further, at hD4.2 receptor, the IC50 turned out to be 8750 nM.
For the compound `COc1ccc(C2(C)C(=O)c3c(N4CCNCC4)cc(Cl)cc3N(Cc3ccccc3Br)C2=O)cc1` (centres unmarked) [Example 35, 1-(2-Bromo-benzyl)-7-chloro-3-(4-methoxy-phenyl)-3-methyl-5-piperazin-1-yl-1H-quinoline-2,4-dione], the melting point was in the range of 150 to 151 °C. Further, on hD3, the IC50 came to 9450 nM. In data set [1] (setting [2]), the IC50 was 9.2 nM. The IC50 in [1] (setting [3]) came out at 16.4 nM. In addition, the IC50 at 5-HT1a stood at 9510 nM. For the same compound, the IC50 at hD2L came to 7150 nM. Also, the half-inhibitory concentration (IC50) on D1 was 9750 nM. The IC50 at 5-HT2a came out at 7640 nM. Moreover, the IC50 at 5-HT7 was found to be 7820 nM. The 50% inhibitory concentration (IC50) at 5-HT2c stood at 7720 nM. In addition, at hD4.2 receptor, the IC50 is 8880 nM.
`COc1cccc(C2(C)C(=O)c3c(N4CCNCC4)cc(Cl)cc3N(Cc3ccccc3)C2=O)c1` (centres unmarked) [Example 50, 1-Benzyl-7-chloro-3-(3-methoxy-phenyl)-3-methyl-5-piperazin-1-yl-1H-quinoline-2,4-dione] displayed a melting point of 110 to 112 °C. Also, on hD3, the IC50 stood at 9760 nM. Further, the IC50 in [1] (setting [2]) was 1.8 nM. Also, the IC50 in data set [1] (setting [3]) was 18.4 nM. Further, the “binding affinity at 5-HT6 receptor labeled by [3H]LSD, in words” value in [1] (comment on Table 2) is given as “significant affinities”. Also, the half-maximal inhibitory concentration (IC50) at 5-HT1a was over 1000 nM. For the same compound, at hD2L, the 50% inhibitory concentration (IC50) was found to be 7190 nM. Moreover, the IC50 at D1 was found to be 7740 nM. Further, the half-inhibitory concentration (IC50) on 5-HT2a is 9150 nM. On 5-HT7, the IC50 is 7640 nM. For the same compound, the 50% inhibitory concentration (IC50) at 5-HT2c was determined as 7470 nM. Besides, the IC50 at hD4.2 receptor amounted to 9040 nM.
